Source: patent US8399712B2 (priority 2010, dated 2013)
Values belong to the compound of their own block, whether it stands above or below them.

Experiments:
[1] = Relative humidity stability, saturated salt solutions at ambient temperature, XRPD; assay type: physicochemical; details: for Dissociation by XRPD: 75, 94, or 98% RH after four weeks
Description: Upon completion of the duration allowed, the samples were immediately analyzed by XRPD.

[2] = tested on: cancer cell lines; details: in vitro; cited from earlier work
[3] = literature (Lopez-Nicolas 2009); cited from earlier work
[4] = literature; cited from earlier work
[5] = assay type: physicochemical; details: slurrying in water at ambient, after 5 minutes
[6] = Attempted intrinsic dissolution of cocrystal 3 in 900 mL water; assay type: physicochemical; details: 900 mL water at ambient conditions, after 30 minutes
Experimental: Intrinsic dissolution in 900 mL water at ambient conditions was also attempted. […] Therefore, a concentration vs. time and intrinsic dissolution rate value were unobtainable at these conditions.

[7] = Slurrying in water, resulting solid form; assay type: physicochemical; details: for Behaviour upon slurrying in water: three days
[8] = tested on: hyperglycemic rats; details: cited from earlier work

Compound: Cn1c(=O)c2c(ncn2C)n(C)c1=O [caffeine, reference compound]
Results (form by XRPD) ([1]; 75% RH, 1 week): caffeine anhydrous
Results (form by XRPD) ([1]; 75% RH, 4 weeks): caffeine anhydrous
Results (form by XRPD) ([1]; 75% RH, 1 day): caffeine anhydrous
Results (form by XRPD) ([1]; 75% RH, 3 days): caffeine anhydrous
Conversion to hydrate ([1]; 75% RH, up to four weeks): does not display signs of conversion
Conversion to hydrate ([1]; 94% RH): between one and three days at 94% RH partial conversion
Results (form by XRPD) ([1]; 94% RH, 1 week (7 days)): caffeine hydrate
Results (form by XRPD) ([1]; 94% RH, 4 weeks): caffeine hydrate
Results (form by XRPD) ([1]; 94% RH, 1 day): caffeine anhydrous
Results (form by XRPD) ([1]; 94% RH, 3 days): caffeine anhydrous/caffeine hydrate
Conversion to hydrate ([1]; 98% RH): converts to caffeine hydrate in less than one day
Results (form by XRPD) ([1]; 98% RH, 1 week): caffeine hydrate
Results (form by XRPD) ([1]; 98% RH, 4 weeks): caffeine hydrate
Results (form by XRPD) ([1]; 98% RH, 1 day): caffeine hydrate
Results (form by XRPD) ([1]; 98% RH, 3 days): caffeine hydrate

Compound: COc1cc(/C=C/c2ccc(O)cc2)cc(OC)c1 [pterostilbene, trans-3,5-dimethoxy-4′-hydroxystilbene]
Cytotoxic activity against cancer cell lines [2]: demonstrated cytotoxic activity
Solubility in water [3]: poor solubility in water
Bioavailability [4]: poor bioavailability

XRPD result of attempted powder dissolution [5]: crystalline pterostilbene
Dissociation by XRPD [1]: no dissociation
XRPD result of attempted intrinsic dissolution [6]: crystalline pterostilbene
Compound: pterostilbene:glutaric acid [cocrystal 3]

Compound: COc1cc(/C=C/c2ccc(O)cc2)cc(OC)c1.Cn1c(=O)c2c(ncn2C)n(C)c1=O [cocrystal 1 (Form I), pterostilbene:caffeine]
Results (form by XRPD) ([1]; 75% RH, 1 week): cocrystal 1 (Form I), no caffeine hydrate
Results (form by XRPD) ([1]; 75% RH, 1 week, additional stress at 98% RH): cocrystal 1 (Form I), no caffeine hydrate
Results (form by XRPD) ([1]; 75% RH, 4 weeks): cocrystal 1 (Form I), no caffeine hydrate
Results (form by XRPD) ([1]; 75% RH, 1 day): cocrystal 1 (Form I), no caffeine hydrate
Results (form by XRPD) ([1]; 75% RH, 1 day, additional stress at 98% RH): cocrystal 1 (Form I), no caffeine hydrate
Results (form by XRPD) ([1]; 75% RH, 3 days): cocrystal 1 (Form I), no caffeine hydrate
Results (form by XRPD) ([1]; 94% RH, 1 week (7 days)): cocrystal 1 (Form I), no caffeine hydrate
Results (form by XRPD) ([1]; 94% RH, 4 weeks): cocrystal 1 (Form I), no caffeine hydrate
Results (form by XRPD) ([1]; 94% RH, 1 day): cocrystal 1 (Form I), no caffeine hydrate
Results (form by XRPD) ([1]; 94% RH, 3 days): cocrystal 1 (Form I), no caffeine hydrate
Results (form by XRPD) ([1]; 94% RH, 7 days, additional stress at 98% RH, 4 weeks): cocrystal 1 (Form I), no caffeine hydrate
Results (form after stress) ([7]; slurry, 2 days): cocrystal 1 (Form I), no caffeine hydrate
Behaviour upon slurrying in water [7]: precipitation of pterostilbene

Results (form by XRPD) ([1]; 75% RH, 1 week): cocrystal 2, no carbamazepine dihydrate
Results (form by XRPD) ([1]; 75% RH, 4 weeks): cocrystal 2, no carbamazepine dihydrate
Results (form by XRPD) ([1]; 75% RH, 1 day): cocrystal 2, no carbamazepine dihydrate
Results (form by XRPD) ([1]; 75% RH, 3 days): cocrystal 2, no carbamazepine dihydrate
Results (form by XRPD) ([1]; 94% RH, 1 week (7 days)): cocrystal 2, no carbamazepine dihydrate
Results (form by XRPD) ([1]; 94% RH, 4 weeks): cocrystal 2, no carbamazepine dihydrate
Results (form by XRPD) ([1]; 94% RH, 1 day): cocrystal 2, no carbamazepine dihydrate
Results (form by XRPD) ([1]; 94% RH, 3 days): cocrystal 2, no carbamazepine dihydrate
Results (form by XRPD) ([1]; 98% RH, 1 week): cocrystal 2, no carbamazepine dihydrate
Results (form by XRPD) ([1]; 98% RH, 4 weeks): cocrystal 2, no carbamazepine dihydrate
Results (form by XRPD) ([1]; 98% RH, 1 day): cocrystal 2, no carbamazepine dihydrate
Results (form by XRPD) ([1]; 98% RH, 3 days): cocrystal 2, no carbamazepine dihydrate
Behaviour upon slurrying in water [7]: stable
Compound: pterostilbene:carbamazepine [cocrystal 2]

Compound: COc1cc(/C=C/c2ccc(O)cc2)cc(OC)c1.Cn1c(=O)c2c(ncn2C)n(C)c1=O [cocrystal 1, pterostilbene:caffeine]
Dissociation by XRPD [1]: no dissociation

Compound: CN(C)C(=N)N=C(N)N [metformin]
Decrease of plasma glucose levels [8]: 48%
